Measurements published in patent US8268814B2, “Substituted sulfonamide compounds” (Gruenenthal GmbH, priority 2008, dated 2012).

Legend:
[1] = target: T1, B1R receptor of the rat (rB1R) (Rattus norvegicus, UniProt P97583); assay: Functional FLIPR Ca2+ assay on the bradykinin 1 receptor, rat (rB1R CHO K1 cells); assay type: cell-based; settings: test substance 10 μM; CHO K1 cells transfected with rat B1R gene; agonist Des-Arg9-bradykinin at EC80; % inhibition compared with maximum achievable inhibition; read-out: B1R antagonism, rat [10 μM] % inhibition
T1 construct: expressed in transfected cells; host or cells: CHO K1 cells (Chinese hamster ovary), stably transfected
T1 sequence (P97583 1-337): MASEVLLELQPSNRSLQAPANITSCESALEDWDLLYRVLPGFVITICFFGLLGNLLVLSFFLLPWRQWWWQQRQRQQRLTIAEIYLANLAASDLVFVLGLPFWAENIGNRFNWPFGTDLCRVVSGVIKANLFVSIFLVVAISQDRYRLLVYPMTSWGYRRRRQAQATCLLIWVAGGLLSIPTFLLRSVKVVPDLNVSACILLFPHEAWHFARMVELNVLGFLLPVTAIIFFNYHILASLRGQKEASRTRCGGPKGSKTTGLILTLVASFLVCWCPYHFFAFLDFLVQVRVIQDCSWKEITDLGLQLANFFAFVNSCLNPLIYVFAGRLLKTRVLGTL
Experimental: (§1) The agonistic or antagonistic action of substances can be quantified on the bradykinin 1 receptor (B1R) of the human and rat species with ectopically expressing cell lines (CHO K1 cells) and with the aid of a Ca^2+-sensitive dyestuff (Fluo-4) in a fluorescent imaging plate reader (FLIPR). The figure in % activation is based on the Ca^2+ signal after addition of Lys-Des-Arg^9-bradykinin (0.5 nM) or Des-Arg^9-bradykinin (100 nM). Antagonists lead to a suppression of the Ca^2+ inflow after addition of the agonist. % inhibition compared with the maximum achievable inhibition is stated.
(§2) The agonistic or antagonistic action of substances can be determined on the bradykinin 1 receptor (B1R) of the human and rat species with the following assay. In accordance with this assay, the Ca^2+ inflow through the channel is quantified with the aid of a Ca^2+-sensitive dyestuff (type Fluo-4, Molecular Probes Europe BV, Leiden, Holland) in a fluorescent imaging plate reader (FLIPR, Molecular Devices, Sunnyvale, USA).
(§3) Chinese hamster ovary cells (CHO K1 cells) transfected stably with the human B1R gene (hB1R cells) or the B1R gene of the rat (rB1R cells) are used. For functional studies, these cells are plated out on black 96-well plates with a clear base (BD Biosciences, Heidelberg, Germany or Greiner, Frickenhausen, Germany) in a density of 20,000-35,000 cells/well. The cells are left overnight at 37° C. and 5% CO2 in culture medium (hB1R cells: Nutrient Mixture Ham's F12, Gibco Invitrogen GmbH, Karlsruhe, Germany or DMEM, Sigma-Aldrich, Taufkirchen, Germany; rB1R cells: D-MEM/F12, Gibco Invitrogen GmbH, Karlsruhe, Germany) with 10 vol. % FBS (foetal bovine serum, Gibco Invitrogen GmbH, Karlsruhe, Germany or PAN Biotech GmbH, Aidenbach, Germany). On the following day, the cells are loaded for 60 min at 37° C. with 2.13 μM Fluo-4 (Molecular Probes Europe BV, Leiden, Holland) in HBSS buffer (Hank's buffered saline solution, Gibco Invitrogen GmbH, Karlsruhe, Germany) with 2.5 mM probenecid (Sigma-Aldrich, Taufkirchen, Germany) and 10 mM HEPES (Sigma-Aldrich, Taufkirchen, Germany). The plates are then washed 2× with HBSS buffer, and HBSS buffer which additionally contains 0.1% BSA (bovine serum albumin; Sigma-Aldrich, Taufkirchen, Germany), 5.6 mM glucose and 0.05% gelatine (Merck KgaA, Darmstadt, Germany) is added. After a further incubation of 20 minutes at room temperature, the plates are inserted into the FLIPR for the Ca^2+ measurement.
(§4) Alternatively, the plates are washed with buffer A (15 mM HEPES, 80 mM NaCl, 5 mM KCl, 1.2 mM CaCl2, 0.7 mM MgSO4, 2 g/l glucose, 2.5 mM probenecid), buffer A is added and the plates are loaded with 2.5 μM Fluo-4 and 0.025% Pluronic F127 (Sigma-Aldrich, Taufkirchen, Germany). Thereafter, the cells are washed 2× with buffer A and incubated for 30 minutes with buffer A, which additionally contains 0.05% BSA and 0.05% gelatine, at room temperature and thereafter inserted into the FLIPR for the Ca^2+ measurement. The Ca^2+-dependent fluorescence is measured here before and after addition of substances (λex=488 nm, λem=540 nm). Quantification is by measurement of the highest fluorescence intensity (FC, fluorescence counts) over time.
(§5) The FLIPR protocol consists of 2 additions of substance. Test substances (10 μM) are first pipetted on to the cells and the Ca^2+ inflow is compared with the control (hB1R: Lys-Des-Arg^9-bradykinin >=50 nM; rB1R: Des-Arg^9-bradykinin 10 μM). This gives the figure in % activation based on the Ca^2+ signal after addition of Lys-Des-Arg^9-bradykinin (>=50 nM) or Des-Arg^9-bradykinin (10 μM). After incubation for 10-20 minutes, Lys-Des-Arg^9-bradykinin (hB1R) or Des-Arg^9-bradykinin (rB1R) in the concentration of the EC80 is applied and the inflow of Ca^2+ is likewise determined. Antagonists lead to a suppression of the Ca^2+ inflow. % inhibition compared with the maximum achievable inhibition is calculated. In order to determine the IC50 value, the substances are added in various concentrations. […]

[2] = target: T2, human B1R receptor (hB1R) (Homo sapiens, UniProt P46663); assay: Functional FLIPR Ca2+ assay on the bradykinin 1 receptor, human (hB1R CHO K1 cells); assay type: cell-based; settings: test substance 10 μM; CHO K1 cells transfected with human B1R gene; agonist Lys-Des-Arg9-bradykinin at EC80; % inhibition compared with maximum achievable inhibition; read-out: B1R antagonism, human (10 μM] % inhibition
T2 construct: expressed in transfected cells; host or cells: CHO K1 cells (Chinese hamster ovary), stably transfected
T2 sequence (P46663 1-353): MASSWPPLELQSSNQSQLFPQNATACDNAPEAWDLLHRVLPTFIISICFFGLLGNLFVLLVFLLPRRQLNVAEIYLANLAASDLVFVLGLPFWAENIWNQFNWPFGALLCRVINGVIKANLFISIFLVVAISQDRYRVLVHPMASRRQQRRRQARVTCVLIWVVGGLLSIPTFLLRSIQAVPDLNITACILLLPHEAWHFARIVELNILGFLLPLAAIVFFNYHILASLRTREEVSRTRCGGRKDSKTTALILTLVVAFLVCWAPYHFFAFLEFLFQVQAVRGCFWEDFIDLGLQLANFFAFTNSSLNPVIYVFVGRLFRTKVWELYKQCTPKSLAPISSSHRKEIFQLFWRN
Experimental: as §1, §2, §3, §4, §5

**Q.** What does the source list for `Cc1cc(S(=O)(=O)N2CCCCC2CCC(=O)N2CCc3sccc3C2c2ccc(Cl)nc2)c(C)cc1Cl` (stereo not shown) [Example 33, 3-(1-(4-chloro-2,5-dimethylphenylsulfonyl)piperidin-2-yl)-1-(4-(6-chloropyridin-3-yl)-6,7-dihydrothieno[3,2-c]pyridin-5(4H)-yl)propan-1-one]?
**A.** inhibition at 10 µM [1]: 35%; inhibition at 10 µM [2]: 40%

**Q.** Which inhibition at 10 µM [1] does the source give for `Cc1cccc(Cl)c1S(=O)(=O)N(CCOCC(=O)N1CCc2sc(CN3CC(F)(F)C3)cc2C1)C1CC1` [Example 57, 2-Chloro-N-cyclopropyl-N-[2-[2-[2-[(3,3-difluoro-azetidin-1-yl)-methyl]-4,5,6,7-tetrahydro-thieno[3,2-c]pyridin-5-yl]-2-oxo-ethoxy]-ethyl]-6-methyl-benzenesulfonic acid amide] here?
**A.** The inhibition at 10 µM was 99%.

**Q.** And the inhibition at 10 µM [2]?
**A.** Its inhibition at 10 µM is 100%.

**Q.** `O=C(C[C@@H](NS(=O)(=O)c1ccc2ccccc2c1)c1ccccc1)N1CCc2sc(CN3CCCCC3)cc2C1` [Example 26, (R)—N-(3-Oxo-1-phenyl-3-(2-(piperidin-1-ylmethyl)-6,7-dihydrothieno[3,2-c]pyridin-5(4H)-yl)propyl)naphthalene-2-sulfonamide] was tested. Which inhibition at 10 µM [1] did it give?
**A.** The inhibition at 10 µM was 101%.

**Q.** And the inhibition at 10 µM [2]?
**A.** The inhibition at 10 µM was 97%.

**Q.** Which results are given for `COc1cc(C)c(S(=O)(=O)N2CCCCC2COCC(=O)N2CCc3sccc3C2c2ccc(F)cc2)c(C)c1` (stereo not shown) [Example 22, 1-(4-(4-fluorophenyl)-6,7-dihydrothieno[3,2-c]pyridin-5(4H)-yl)-2-((1-(4-methoxy-2,6-dimethylphenylsulfonyl)piperidin-2-yl)methoxy)ethanone]?
**A.** inhibition at 10 µM [1]: 100%; inhibition at 10 µM [2]: 96%

**Q.** What does the source list for `COc1cc(C)c(S(=O)(=O)N(C)CCOCC(=O)N2CCc3onc(CN(C)C)c3C2)c(C)c1` [Example 32, N-(2-(2-(3-((dimethylamino)methyl)-6,7-dihydroisoxazolo[4,5-c]pyridin-5(4H)-yl)-2-oxoethoxy)ethyl)-4-methoxy-N,2,6-trimethylbenzenesulfonamide]?
**A.** inhibition at 10 µM [1]: 104%; inhibition at 10 µM [2]: 99%

**Q.** With `COc1cc(C)c(S(=O)(=O)N2CCCCC2COCC(=O)N2CCc3sc(CN4CCN(C)CC4)cc3C2)c(C)c1` (stereo not shown) [Example 50, 2-((1-(4-methoxy-2,6-dimethylphenylsulfonyl)piperidin-2-yl)methoxy)-1-(2-((4-methylpiperazin-1-yl)methyl)-6,7-dihydrothieno[3,2-c]pyridin-5(4H)-yl)ethan-1-one] as the compound, how does the inhibition at 10 µM [1] read?
**A.** Its inhibition at 10 µM is 102%.

**Q.** And the inhibition at 10 µM [2]?
**A.** Its inhibition at 10 µM is 100%.

**Q.** Which inhibition at 10 µM [1] does the source give for `COc1cc(C)c(S(=O)(=O)N(C)CCOCC(=O)N2CCc3onc(CN4CCOCC4)c3C2)c(C)c1` [Example 30, 4-methoxy-N,2,6-trimethyl-N-(2-(2-(3-(morpholinomethyl)-6,7-dihydroisoxazolo[4,5-c]pyridin-5(4H)-yl)-2-oxoethoxy)ethyl)benzenesulfonamide] here?
**A.** The inhibition at 10 µM was 104%.

**Q.** And the inhibition at 10 µM [2]?
**A.** Its inhibition at 10 µM is 99%.

**Q.** With `COc1cc(C)c(S(=O)(=O)N2CCCCC2CCC(=O)N2CCc3nc(Cc4ccncc4)sc3C2)c(C)c1` (stereo not shown) [Example 41, 3-(1-(4-methoxy-2,6-dimethylphenylsulfonyl)piperidin-2-yl)-1-(2-(pyridin-4-ylmethyl)-6,7-dihydrothiazolo[5,4-c]pyridin-5(4H)-yl)propan-1-one] as the compound, how does the inhibition at 10 µM [1] read?
**A.** Its inhibition at 10 µM is 99%.

**Q.** And the inhibition at 10 µM [2]?
**A.** The inhibition at 10 µM was 64%.

**Q.** What does the source list for `COc1cc(C)c(S(=O)(=O)N(C)CCOCC(=O)N2CCc3sc(CN4CCN(C)CC4)cc3C2)c(C)c1` [Example 51, 4-methoxy-N,2,6-trimethyl-N-(2-(2-(2-((4-methylpiperazin-1-yl)methyl)-6,7-dihydrothieno[3,2-c]pyridin-5(4H)-yl)-2-oxoethoxy)ethyl)benzenesulfonamide]?
**A.** inhibition at 10 µM [1]: 103%; inhibition at 10 µM [2]: 100%

**Q.** What does the source list for `CN1CCN(Cc2cc3c(s2)CCN(C(=O)CC2CCCCN2S(=O)(=O)c2cccc(C(F)(F)F)c2)C3)CC1` (stereo not shown) [Example 44, 1-(2-((4-methylpiperazin-1-yl)methyl)-6,7-dihydrothieno[3,2-c]pyridin-5(4H)-yl)-2-(1-(3-(trifluoromethyl)phenylsulfonyl)piperidin-2-yl)ethan-1-one]?
**A.** inhibition at 10 µM [1]: 59%; inhibition at 10 µM [2]: 83%

**Q.** With `Cc1cccc(Cl)c1S(=O)(=O)N(CCOCC(=O)N1CCc2sc(CN3CCCCC3)cc2C1)C1CC1` [Example 60, 2-chloro-N-cyclopropyl-6-methyl-N-[2-[2-oxo-2-[2-(piperidin-1-yl-methyl)-4,5,6,7-tetrahydro-thieno[3,2-c]pyridin-5-yl]-ethoxy]-ethyl]-benzenesulfonic acid amide] as the compound, how does the inhibition at 10 µM [1] read?
**A.** Its inhibition at 10 µM is 106%.

**Q.** What about the inhibition at 10 µM [2] of the same compound?
**A.** The inhibition at 10 µM was 100%.

**Q.** `COc1cc(C)c(S(=O)(=O)N2CCCCC2COCC(=O)N2CCc3onc(CN4CCCCC4)c3C2c2ccccc2)c(C)c1` (stereo not shown) [Example 126, 2-((1-(4-Methoxy-2,6-dimethylphenylsulfonyl)piperidin-2-yl)methoxy)-1-(4-phenyl-3-(piperidin-1-ylmethyl)-6,7-dihydroisoxazolo[4,5-c]pyridin-5(4H)-yl)ethanone] was tested. Which inhibition at 10 µM [1] did it give?
**A.** The inhibition at 10 µM was 104%.

**Q.** What about the inhibition at 10 µM [2] of the same compound?
**A.** Its inhibition at 10 µM is 90%.

**Q.** For `O=C(CC1CCCCN1S(=O)(=O)c1cccc(C(F)(F)F)c1)N1CCc2nc(-c3ccncc3)sc2C1` (stereo not shown) [Example 37, 1-(2-(pyridin-4-yl)-6,7-dihydrothiazolo[5,4-c]pyridin-5(4H)-yl)-2-(1-(3-(trifluoromethyl)phenylsulfonyl)piperidin-2-yl)ethan-1-one], which inhibition at 10 µM [1] is on record?
**A.** The inhibition at 10 µM was 97%.

**Q.** And the inhibition at 10 µM [2]?
**A.** The inhibition at 10 µM was 28%.

**Q.** What does the source list for `Cc1cc(S(=O)(=O)N2CCCCC2CCC(=O)N2CCc3sccc3C2c2cccc(F)c2)c(C)cc1Cl` (stereo not shown) [Example 35, 3-(1-(4-chloro-2,5-dimethylphenylsulfonyl)piperidin-2-yl)-1-(4-(3-fluorophenyl)-6,7-dihydrothieno[3,2-c]pyridin-5(4H)-yl)propan-1-one]?
**A.** inhibition at 10 µM [1]: 3%; inhibition at 10 µM [2]: 41%
